Assay results from PMC10227015, “From a drug repositioning to a structure-based drug design approach to tackle acute lymphoblastic leukemia” (Nature Communications, 2023).
Like-named read-outs stand apart in the source and are kept apart here.

Assays:
Format in all cases: cell-based, human
PDX UPNT730 = experiment: Ex vivo testing on PDX samples (viability, flow cytometry, 72 h), with or without OP9-DL1 monolayer; conditions: for viability at 12 µM / viability at 37 µM / viability at 111 µM / viability at 333 µM / viability at 1000 µM / viability at 3000 µM: Homo sapiens, read-out: Cell viability, Mean (% viab); for viability at 12 µM: dT 12 µM; for viability at 37 µM: dT 37 µM; for viability at 111 µM: dT 111 µM; for viability at 333 µM: dT 333 µM; for viability at 1000 µM: dT 1000 µM; for viability at 3000 µM: dT 3000 µM
Excerpt: (§1) Bone marrow-infiltrating blasts from terminally mice bearing PDX as stated above were collected as established before. Extensive analysis (immunophenotype and molecular analysis) of matched primary and PDX samples used in the study are shown in Supplementary Table 7, showing that they remain stable. Briefly, after euthanasia, bone marrows from tibiae, hips, femurs, and vertebrae were isolated and blasts collected for subsequent ex vivo experiments. All samples used contained ≥90% blasts as determined by flow cytometry. For the cytotoxic evaluation of OR0642, blasts were then stained with CellTraceTM Violet (CTV, Thermo Fisher Scientific, C34557) prior seeding at 10,000 cells into 96-well plates under normal conditions or pre-plated with OP9-DL1 cells. Cells were cultured in RPMI 1640 supplemented with 20% fetal bovine serum, 50 µg/ml streptomycin, 50 UI penicillin, 4 mM L-glutamine, and a cocktail of human cytokines as previously established (50 ng/ml human stem cell factor, 20 ng/ml hFLT3-L, 10 ng/ml hIL-7 and 20 nM insulin (Miltenyi Biotec))[28]. […] Rescue by dC supplementation (1 µM) was also evaluated. OR0642 was then tested alone, or combined with dT or dT + dC at two concentrations (0.25 and 0.5 µM). Cell viability was evaluated by flow cytometry 72 h post-treatment. Proliferation indexes were calculated using the detection of CTV in the control replicates (DMSO) and the proliferation modeling tool of FlowJo™ Software 10.7.1 (BD Life Sciences). A control peak of undivided CTV-stained cells was systematically used to set the undivided fraction.

PDX UPNT615 = experiment: Ex vivo testing on PDX samples (viability, flow cytometry, 72 h)
Excerpt: as §1

PDX UPNTAGG = experiment: as above
Excerpt: as §1

PDX UPNT775 = experiment: as above
Excerpt: as §1

PDX UPNT525 = experiment: as above
Excerpt: as §1

PDX UPNT380 = experiment: as above
Excerpt: as §1

PDX UPNT885 = experiment: as above
Excerpt: as §1

PDX UPNT489 = experiment: as above
Excerpt: as §1

PDX UPNT486 = experiment: as above
Excerpt: as §1

Question: What does the source list for `Cc1cn([C@H]2C[C@H](O)[C@@H](CO)O2)c(=O)[nH]c1=O` [dT, thymidine]?
Answer: viability at 12 µM (PDX UPNT730; UPNT730 + OP9-DL1): 100%; viability at 37 µM (PDX UPNT730; UPNT730 + OP9-DL1): 96.3%; viability at 111 µM (PDX UPNT730; UPNT730 + OP9-DL1): 86.4%; viability at 333 µM (PDX UPNT730; UPNT730 + OP9-DL1): 82%; viability at 1000 µM (PDX UPNT730; UPNT730 + OP9-DL1): 72.2%; viability at 3000 µM (PDX UPNT730; UPNT730 + OP9-DL1): 72.9%; viability at 12 µM (PDX UPNT730; UPNT730): 100%; viability at 37 µM (PDX UPNT730; UPNT730): 106%; viability at 111 µM (PDX UPNT730; UPNT730): 107%; viability at 333 µM (PDX UPNT730; UPNT730): 109%; viability at 1000 µM (PDX UPNT730; UPNT730): 102%; viability at 3000 µM (PDX UPNT730; UPNT730): 105%; Response at dT100 µM (PDX UPNT730; PDX 730, dT 100 µM): 17; sensitivity (PDX UPNT730; proliferative conditions (OP9-DL1 monolayer)): sensitive; viability at 12 µM (PDX UPNT615; Homo sapiens, UPNT615, dT 12 µM, read-out: Cell viability, Mean (% viab)): 100%; viability at 37 µM (PDX UPNT615; Homo sapiens, UPNT615, dT 37 µM, read-out: Cell viability, Mean (% viab)): 84.7%; viability at 111 µM (PDX UPNT615; Homo sapiens, UPNT615, dT 111 µM, read-out: Cell viability, Mean (% viab)): 78.6%; viability at 333 µM (PDX UPNT615; Homo sapiens, UPNT615, dT 333 µM, read-out: Cell viability, Mean (% viab)): 73.6%; viability at 1000 µM (PDX UPNT615; Homo sapiens, UPNT615, dT 1000 µM, read-out: Cell viability, Mean (% viab)): 67.2%; viability at 3000 µM (PDX UPNT615; Homo sapiens, UPNT615, dT 3000 µM, read-out: Cell viability, Mean (% viab)): 66.7%; Response at dT100 µM (PDX UPNT615; PDX 615, dT 100 µM): 31; viability at 12 µM (PDX UPNTAGG; Homo sapiens, UPNTAGG, dT 12 µM, read-out: Cell viability, Mean (% viab)): 100%; viability at 37 µM (PDX UPNTAGG; Homo sapiens, UPNTAGG, dT 37 µM, read-out: Cell viability, Mean (% viab)): 87.6%; viability at 111 µM (PDX UPNTAGG; Homo sapiens, UPNTAGG, dT 111 µM, read-out: Cell viability, Mean (% viab)): 82.2%; viability at 333 µM (PDX UPNTAGG; Homo sapiens, UPNTAGG, dT 333 µM, read-out: Cell viability, Mean (% viab)): 73.3%; viability at 1000 µM (PDX UPNTAGG; Homo sapiens, UPNTAGG, dT 1000 µM, read-out: Cell viability, Mean (% viab)): 65.7%; viability at 3000 µM (PDX UPNTAGG; Homo sapiens, UPNTAGG, dT 3000 µM, read-out: Cell viability, Mean (% viab)): 58.6%; Response at dT100 µM (PDX UPNTAGG; PDX AGG, dT 100 µM): 38; viability at 12 µM (PDX UPNT775; Homo sapiens, UPNT775, dT 12 µM, read-out: Cell viability, Mean (% viab)): 100%; viability at 37 µM (PDX UPNT775; Homo sapiens, UPNT775, dT 37 µM, read-out: Cell viability, Mean (% viab)): 86.3%; viability at 111 µM (PDX UPNT775; Homo sapiens, UPNT775, dT 111 µM, read-out: Cell viability, Mean (% viab)): 53.9%; viability at 333 µM (PDX UPNT775; Homo sapiens, UPNT775, dT 333 µM, read-out: Cell viability, Mean (% viab)): 40.5%; viability at 1000 µM (PDX UPNT775; Homo sapiens, UPNT775, dT 1000 µM, read-out: Cell viability, Mean (% viab)): 36%; viability at 3000 µM (PDX UPNT775; Homo sapiens, UPNT775, dT 3000 µM, read-out: Cell viability, Mean (% viab)): 36.7%; Response at dT100 µM (PDX UPNT775; PDX 775, dT 100 µM): 63; viability at 37 µM (PDX UPNT525; Homo sapiens, UPNT525, dT 37 µM, read-out: Cell viability, Mean (% viab)): 99.5%; viability at 111 µM (PDX UPNT525; Homo sapiens, UPNT525, dT 111 µM, read-out: Cell viability, Mean (% viab)): 67.8%; viability at 333 µM (PDX UPNT525; Homo sapiens, UPNT525, dT 333 µM, read-out: Cell viability, Mean (% viab)): 44.3%; viability at 1000 µM (PDX UPNT525; Homo sapiens, UPNT525, dT 1000 µM, read-out: Cell viability, Mean (% viab)): 30.6%; viability at 3000 µM (PDX UPNT525; Homo sapiens, UPNT525, dT 3000 µM, read-out: Cell viability, Mean (% viab)): 24.9%; Response at dT100 µM (PDX UPNT525; PDX 525, dT 100 µM): 44; viability at 12 µM (PDX UPNT380; Homo sapiens, UPNT380, dT 12 µM, read-out: Cell viability, Mean (% viab)): 100%; viability at 37 µM (PDX UPNT380; Homo sapiens, UPNT380, dT 37 µM, read-out: Cell viability, Mean (% viab)): 85.4%; viability at 111 µM (PDX UPNT380; Homo sapiens, UPNT380, dT 111 µM, read-out: Cell viability, Mean (% viab)): 79.4%; viability at 333 µM (PDX UPNT380; Homo sapiens, UPNT380, dT 333 µM, read-out: Cell viability, Mean (% viab)): 76.9%; viability at 1000 µM (PDX UPNT380; Homo sapiens, UPNT380, dT 1000 µM, read-out: Cell viability, Mean (% viab)): 70.3%; viability at 3000 µM (PDX UPNT380; Homo sapiens, UPNT380, dT 3000 µM, read-out: Cell viability, Mean (% viab)): 67.7%; Response at dT100 µM (PDX UPNT380; PDX 380, dT 100 µM): 27; viability at 12 µM (PDX UPNT885; Homo sapiens, UPNT885, dT 12 µM, read-out: Cell viability, Mean (% viab)): 100%; viability at 37 µM (PDX UPNT885; Homo sapiens, UPNT885, dT 37 µM, read-out: Cell viability, Mean (% viab)): 85.3%; viability at 111 µM (PDX UPNT885; Homo sapiens, UPNT885, dT 111 µM, read-out: Cell viability, Mean (% viab)): 65.1%; viability at 333 µM (PDX UPNT885; Homo sapiens, UPNT885, dT 333 µM, read-out: Cell viability, Mean (% viab)): 49.5%; viability at 1000 µM (PDX UPNT885; Homo sapiens, UPNT885, dT 1000 µM, read-out: Cell viability, Mean (% viab)): 44.3%; viability at 3000 µM (PDX UPNT885; Homo sapiens, UPNT885, dT 3000 µM, read-out: Cell viability, Mean (% viab)): 39.5%; Response at dT100 µM (PDX UPNT885; PDX 885, dT 100 µM): 49; viability at 12 µM (PDX UPNT489; Homo sapiens, UPNT489, dT 12 µM, read-out: Cell viability, Mean (% viab)): 100%; viability at 37 µM (PDX UPNT489; Homo sapiens, UPNT489, dT 37 µM, read-out: Cell viability, Mean (% viab)): 94.6%; viability at 111 µM (PDX UPNT489; Homo sapiens, UPNT489, dT 111 µM, read-out: Cell viability, Mean (% viab)): 87%; viability at 333 µM (PDX UPNT489; Homo sapiens, UPNT489, dT 333 µM, read-out: Cell viability, Mean (% viab)): 78.3%; viability at 1000 µM (PDX UPNT489; Homo sapiens, UPNT489, dT 1000 µM, read-out: Cell viability, Mean (% viab)): 71.4%; viability at 3000 µM (PDX UPNT489; Homo sapiens, UPNT489, dT 3000 µM, read-out: Cell viability, Mean (% viab)): 66.9%; Response at dT100 µM (PDX UPNT489; PDX 489, dT 100 µM): 39; viability at 12 µM (PDX UPNT486; Homo sapiens, UPNT486, dT 12 µM, read-out: Cell viability, Mean (% viab)): 99.7%; viability at 37 µM (PDX UPNT486; Homo sapiens, UPNT486, dT 37 µM, read-out: Cell viability, Mean (% viab)): 95%; viability at 111 µM (PDX UPNT486; Homo sapiens, UPNT486, dT 111 µM, read-out: Cell viability, Mean (% viab)): 90.6%; viability at 333 µM (PDX UPNT486; Homo sapiens, UPNT486, dT 333 µM, read-out: Cell viability, Mean (% viab)): 100%; viability at 1000 µM (PDX UPNT486; Homo sapiens, UPNT486, dT 1000 µM, read-out: Cell viability, Mean (% viab)): 90.2%; viability at 3000 µM (PDX UPNT486; Homo sapiens, UPNT486, dT 3000 µM, read-out: Cell viability, Mean (% viab)): 77.6%; Response at dT100 µM (PDX UPNT486; PDX 486, dT 100 µM): 31
